# From patent US4335249A, “Herbicidal diphenyl ethers, sulfides, sulfoxides and sulfones” (Rohm and Haas Company, priority 1976, dated 1982)
# Tests used:
# Assay type in all cases: in vivo
# [1] = tested on: marigold (Tagetes spp.); assay: Preemergence herbicidal activity, marigold; details: pre-emergence, 336 h, 2 lb/A
# How it was run: (§1)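 Seeds were sown in soil flats and sprayed either right after planting (preemergence) or two weeks after germination (postemergence). Compound in acetone diluted with water was applied at a 50 gal/acre carrier volume at rates in lb/A. About two weeks later, average percent control was scored as percent of plants killed.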
# [2] = tested on: foxtail (Setaria spp.); assay: Preemergence herbicidal activity, foxtail; details: Setaria, pre-emergence, 336 h; Pre, 2 lb/A
# How it was run: as §1
# [3] = tested on: wild oats (Avena fatua); assay: Postemergence herbicidal activity, wild oats; details: Avena fatua, post-emergence, 336 h, Post, 2 lb/A; read-out: % control, Wild oat
# How it was run: as §1
# [4] = tested on: barnyardgrass (Echinochloa crusgalli); assay: Preemergence herbicidal activity, barnyardgrass; details: Echinochloa crus-galli, pre-emergence, 336 h; Pre, 2 lb/A
# How it was run: (§2)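 Control of the weed species is the read-out, following spray application at a given rate in lb/A. Flats of seeded soil received treatment either directly upon planting or, for postemergence, two weeks after seedlings emerged. Spray carrier was aqueous acetone at 50 gallons per acre equivalent.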
# [5] = tested on: morningglory (Ipomoca spp.); assay: Postemergence herbicidal activity, morningglory; details: Ipomoea, post-emergence, 336 h, 2 lb/A
# How it was run: as §1
# [6] = tested on: foxtail (Setaria spp.); assay: Postemergence herbicidal activity, foxtail; details: Setaria, post-emergence, 336 h, Post, 2 lb/A
# How it was run: as §1
# [7] = tested on: downybrome (Bromus tectorum); assay: Preemergence herbicidal activity, downybrome; details: Bromus tectorum, pre-emergence, 336 h, Pre, 2 lb/A
# How it was run: as §1
# [8] = tested on: yellow nutsedge (Cyperus esculentus); assay: Postemergence herbicidal activity, yellow nutsedge; details: Cyperus, post-emergence, 336 h, 2 lb/A
# How it was run: as §1
# [9] = tested on: velvetleaf (Abutilon theophrasti); assay: Preemergence herbicidal activity, velvetleaf; details: Abutilon theophrasti, pre-emergence, 336 h; Pre, 2 lb/A
# How it was run: as §1
# [10] = tested on: tomato (Lycopersicon esculentum); assay: Postemergence herbicidal activity, tomato; details: Solanum lycopersicum, post-emergence, 336 h, Post, 2 lb/A
# How it was run: as §1
# [11] = tested on: wild oats (Avena fatua); assay: Preemergence herbicidal activity, wild oats; details: Avena fatua, pre-emergence, 336 h, Pre, 2 lb/A; read-out: % control, Wild oat
# How it was run: as §1
# [12] = tested on: tomato (Lycopersicon esculentum); assay: Preemergence herbicidal activity, tomato; details: Solanum lycopersicum, pre-emergence, 336 h; Pre, 2 lb/A
# How it was run: as §1
# [13] = tested on: yellow nutsedge (Cyperus esculentus); assay: Preemergence herbicidal activity, yellow nutsedge; details: Cyperus, pre-emergence, 336 h, 2 lb/A
# How it was run: as §1
# [14] = tested on: morningglory (Ipomoca spp.); assay: Preemergence herbicidal activity, morningglory; details: Ipomoea, pre-emergence, 336 h, 2 lb/A
# How it was run: as §1
# [15] = tested on: marigold (Tagetes spp.); assay: Postemergence herbicidal activity, marigold; details: post-emergence, 336 h, 2 lb/A
# How it was run: as §1
# [16] = tested on: velvetleaf (Abutilon theophrasti); assay: Postemergence herbicidal activity, velvetleaf; details: Abutilon theophrasti, post-emergence, 336 h, 2 lb/A
# How it was run: as §2
# [17] = tested on: cocklebur (Xanthium pensylvanicum); assay: Postemergence herbicidal activity, cocklebur; details: Xanthium strumarium, post-emergence, 336 h, 2 lb/A
# How it was run: as §1
# [18] = tested on: barnyardgrass (Echinochloa crusgalli); assay: Postemergence herbicidal activity, barnyardgrass; details: Echinochloa crus-galli, post-emergence, 336 h; Post, 2 lb/A
# How it was run: as §2
# [19] = tested on: cocklebur (Xanthium pensylvanicum); assay: Preemergence herbicidal activity, cocklebur; details: Xanthium strumarium, pre-emergence, 336 h, 2 lb/A
# How it was run: as §1
# [20] = tested on: downybrome (Bromus tectorum); assay: Postemergence herbicidal activity, downybrome; details: Bromus tectorum, post-emergence, 336 h, Post, 2 lb/A
# How it was run: as §1
Structure (SMILES),pest or weed control at 2241.7 g/ha [1] [%],pest or weed control at 2241.7 g/ha [2] [%],pest or weed control at 2241.7 g/ha [3] [%],pest or weed control at 2241.7 g/ha [4] [%],pest or weed control at 2241.7 g/ha [5] [%],pest or weed control at 2241.7 g/ha [6] [%],pest or weed control at 2241.7 g/ha [7] [%],pest or weed control at 2241.7 g/ha [8] [%],pest or weed control at 2241.7 g/ha [9] [%],pest or weed control at 2241.7 g/ha [10] [%],pest or weed control at 2241.7 g/ha [11] [%],pest or weed control at 2241.7 g/ha [12] [%],pest or weed control at 2241.7 g/ha [13] [%],pest or weed control at 2241.7 g/ha [14] [%],pest or weed control at 2241.7 g/ha [15] [%],pest or weed control at 2241.7 g/ha [16] [%],pest or weed control at 2241.7 g/ha [17] [%],pest or weed control at 2241.7 g/ha [18] [%],pest or weed control at 2241.7 g/ha [19] [%],pest or weed control at 2241.7 g/ha [20] [%]
CCCCCCOC(=O)C(C)Oc1ccc(Oc2ccc(C(F)(F)F)cc2Cl)cc1 (centres unmarked) [Example 36],0,100,100,100,0,100,0,0,0,0,0,0,0,0,0,0,0,100,0,60
CCOC(=O)C(C)Oc1ccc(Oc2ccc(C(F)(F)F)cc2C#N)cc1 (centres unmarked) [Example 37],0,60,90,100,10,95,95,0,20,30,0,20,0,40,10,0,30,100,0,90
CCOC(=O)CCC(C)Oc1ccc(Oc2ccc(C(F)(F)F)cc2Cl)cc1 (centres unmarked) [Example 38],0,100,99,90,0,100,0,0,0,0,0,0,0,0,0,0,0,100,0,90
CCOC(=O)CCC(C)Oc1ccc(Oc2ccc(C(F)(F)F)cc2)cc1 (centres unmarked) [Example 39],0,99,100,99,40,100,60,0,0,20,50,0,0,0,0,0,60,100,0,100
